Data reported in patent US7521447B2, “P38 inhibitors and methods of use thereof” (Array Biopharma Inc., priority 2003, dated 2009).

The compounds below were run on LPS-induced TNF-α secretion from human peripheral blood mononuclear cells (PBMC) (assay: PBMC Assay: inhibition of LPS-induced TNF-α secretion). Details: LPS-stimulated human PBMC, TNF-α ELISA.
Format: cell-based
Design: key: An “active” compound is defined as a compound having an IC50 below 500 nM
Experimental: The ability of compounds of this invention to inhibit TNF-α production was assessed by using human peripheral blood mononuclear cells (“PBMC”) which synthesize and secrete TNF-α when stimulated with lipopolysaccharide.
Compound test solutions were made by making 5 fold serial dilutions in DMSO, which dilutions were then diluted to 5× stocks by diluting with MEM, 2% heat inactivated fetal bovine serum (“FBS”), 20 mM HEPES, 2 mM L-glutamine, and 1% penicillin/streptomycin.
PBMC's were isolated from human blood as follows. Whole blood samples were collected from human volunteers into Vacutainer™ CPT from Becton Dickinson. Tubes were mixed and centrifuged at room temperature (18-25° C.) in a horizontal rotor for a minimum of 15 minutes at 1500-1800 RCF (relative centrifugal force). For each donor, the buffy coat layers were pooled into a single tube and washed twice with phosphate buffered saline (“PBS”). The cell pellet was resuspended in MEM, 2% heat inactivated fetal bovine serum (“FBS”), 20 mM HEPES, 2 mM L-glutamine, and 1% penicillin/streptomycin. Total cell number was determined using a hemocytometer and the cell suspension was adjusted to 2×10^6 cells/mL.
0.1 mL of cell suspension was added to each well of a 96-well cell culture plate. 30 μL of a compound test solution was added, and the cells were incubated in a 37° C./5% CO2 incubator for 1 hour. 20 μL of 7.5 ng/mL lipopolysaccharide (LPS E. Coli K-235) was then added to each well, and the cells were returned to the 37° C./5% CO2 incubator for 16-20 hours. The cells were centrifuged for 15 minutes at 1100 RCF. Approximately 0.12 mL of the supernatant was transferred into a clean 96 well polypropylene plate. The samples were either assayed immediately or were stored at −80° C. until ready for assay. TNF-α levels were determined in each sample using a human TNF-α ELISA assay such as that described below.
TNF-α levels were determined using the following assay. TNF-alpha antibody coated plates were prepared by adding 150 μL of 2 μg/mL anti-TNF-α purified mouse monoclonal IgG in Carbonate-Bicarbonate buffer (BupH™ Carbonate-Bicarbonate Buffer Pack) to wells of a 96-well Immulon 4 plate (Immulon 4 ELISA Flat Bottom Plate; Dynex, catalog number 011-010-3855) and incubated overnight at 2-8° C. Coating solution was removed and 200 μL of “blocking buffer” (20 mM HEPES pH 7.4, 150 mM NaCl, 2% BSA) was added and plates were stored 2-8° C. until ready to use. A ten-point recombinant human TNF-α standard curve was prepared by a 1:2 serial dilution in “sample diluent” (20 mM HEPES, pH 7.4, 150 mM NaCl, 2 mM MgCl2, 1% BSA) with a top concentration of 6000 pg/mL.
Blocking solution was removed from TNF-α ELISA plates by washing five times with 300 μL of “wash buffer” (20 mM HEPES, pH 7.4, 150 mM NaCl, 2 mM MgCl2, 0.02% Tween-20). 50 μL of “sample diluent” was added to all wells, and then either 50 μL of a TNF-α standard curve solution or test compound supernatant was added to all wells. The plate was incubated at room temperature for one hour with shaking (300 rpm). The plate was washed wash five times with 300 μL “wash buffer”. 100 μL of 0.2 μg/mL biotinylated goat anti-human TNF-α in “antibody diluent” (20 mM HEPES, pH 7.4, 150 mM NaCl, 2 mM MgCl2, 1% BSA, 0.02% Tween-20) was added per well, and the plate was incubated at room temperature for one hour with shaking (300 rpm). The plate was washed wash five times with 300 μL “wash buffer” per well. 100 μL of 0.02 μg/mL streptavidin alkaline phosphatase in “antibody diluent” was added per well, and the plate was incubated at room temperature for one hour with shaking (300 rpm). The plate was washed wash five times with 300 μL wash buffer per well. 200 μL of 1 mg/mL pNPP (p-nitrophenyl phosphate) in diethanolamine buffer with 0.5 mM MgCl2 was added per well, and the plate was incubated for 30 to 45 minutes at room temperature with shaking (300 rpm). […]
`CC(C)Cn1ncc2cc(Nc3ccc(F)cc3F)ccc21` [Compound 2h-1, (2,4-difluorophenyl)-(1-isobutyl-1H-indazol-5-yl)-amine] was tested, and the “PBMC IC50 (nM)” value was “active”.

What follows are compounds tested against activated p38α enzyme (Homo sapiens, UniProt Q16539) (assay: p38 Biochemical Assay). Details: 5 nM activated p38α, 1 uM ATF-2 substrate, 10 μM ATP.
Chain of activated p38α enzyme (Q16539 whole entry): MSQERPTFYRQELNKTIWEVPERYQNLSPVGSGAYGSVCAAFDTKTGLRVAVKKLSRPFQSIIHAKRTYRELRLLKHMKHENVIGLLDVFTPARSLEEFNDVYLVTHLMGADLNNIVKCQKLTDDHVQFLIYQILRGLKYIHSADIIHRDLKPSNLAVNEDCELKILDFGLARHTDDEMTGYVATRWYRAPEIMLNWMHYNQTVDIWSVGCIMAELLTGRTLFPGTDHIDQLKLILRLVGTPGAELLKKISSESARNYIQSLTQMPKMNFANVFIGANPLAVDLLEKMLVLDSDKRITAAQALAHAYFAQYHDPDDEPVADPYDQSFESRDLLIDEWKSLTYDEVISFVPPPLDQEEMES
Design: key: An “active” compound is defined as a compound having an IC50 below 500 nM
Experimental: P38 activity was assayed at room temperature in a 100 μl reaction containing 5 nM activated p38α enzyme and 1 uM ATF-2 (Activating Transcription Factor 2 fusion protein) as the substrate in 25 mM HEPES (pH 7.4), 100 μM Vanadate, 1 mM DTT, 10 mM MgCl2 and 10 μM [[…]-^33P]-ATP (˜0.1 μCi P^33/reaction). The reaction was terminated after 30-40 minutes by adding 25% TCA, let stand for 5 minutes and then transferred directly to a GF-B membrane filter plate. The filter was washed twice for 30 seconds with 0.5% phosphoric acid using a Tomtec Mach III Automated Harvestor. After washing, the vacuum was continued for 30 seconds to dry the filter. Approximately 30 μl of scintillant was added per well to the filter plate and then read in a Liquid Scintillation Counter (Packard TopCount HTS).
`COC(=O)C(CCN)NC(=O)c1cc2c(cnn2CC(C)C)cc1Oc1ccc(F)cc1` (stereo not shown) [Compound 1j-2, 4-amino-2-{[5-(4-fluorophenoxy)-1-isobutyl-1H-indazole-6-carbonyl]-amino}butyric acid methyl ester] was tested, and the “p38 Inhibition IC50 (nM)” value was “active”.
For `COC(=O)C(CCN)NC(=O)c1cc2c(cnn2CC(F)(F)F)cc1Oc1ccc(F)cc1` (stereo not shown) [Compound 1j-4, 4-amino-2-{[5-(4-fluorophenoxy)-1-(2,2,2-trifluoroethyl)-1H-indazole-6-carbonyl]-amino}butyric acid methyl ester], the “p38 Inhibition IC50 (nM)” value was “active”.
For `CC(C)Cn1ncc2cc(Nc3ccc(F)cc3F)ccc21` [Compound 2h-1, (2,4-difluorophenyl)-(1-isobutyl-1H-indazol-5-yl)-amine], the “p38 Inhibition IC50 (nM)” value was “active”.
In the case of `CC(C)Cn1ncc2cc(C(O)c3ccc(Cl)cc3F)ccc21` (stereo not shown) [Compound 4f-7, (4-chloro-2-fluorophenyl)-(1-isobutyl-1H-indazol-5-yl)-methanol], the “p38 Inhibition IC50 (nM)” value was “active”.
`CC(C)Cn1ncc2cc(C(O)c3ccc(F)cc3Cl)ccc21` (stereo not shown) [Compound 4f-8, (2-chloro4-fluorophenyl)-(1-isobutyl-1H-indazol-5-yl)-methanol] was tested, and the “p38 Inhibition IC50 (nM)” value was “active”.
For `Cc1ccccc1C(O)c1ccc2c(cnn2CC(C)C)c1` (stereo not shown) [Compound 4f-10, (1-isobutyl-1H-indazol-5-yl)-O-tolyl methanol], the “p38 Inhibition IC50 (nM)” value was “active”.
In the case of `CC(C)Cn1ncc2cc(C(=O)c3ccc(F)cc3Cl)ccc21` [Compound 5f-8, (2-chloro-4-fluorophenyl)-(1-isobutyl-1H-indazol-5-yl)-methanone], the “p38 Inhibition IC50 (nM)” value was “active”.
For `O=C(c1ccc2c(cnn2CC(F)(F)F)c1)c1ccc(F)cc1F` [Compound 5f-11, (2,4-difluorophenyl)-[1-(2,2,2-trifluoro-ethyl)-1H-indazol-5-yl]-methanone], the “p38 Inhibition IC50 (nM)” value was “active”.
In the case of `C=CCn1ncc2cc(C(=O)c3ccc(F)cc3F)ccc21` [Compound 5f-12, (1-allyl-1H-indazol-5-yl)-(2,4-difluorophenyl)-methanone], the “p38 Inhibition IC50 (nM)” value was “active”.
With `Cc1ccc(-n2nc(C(C)(C)C)cc2NC(=O)NCc2cccnc2Oc2ccc3c(cnn3C)c2)cc1` [Compound 6n, 1-(5-tert-butyl-2-p-tolyl-2H-pyrazol-3-yl)-3-[2-(1-methyl-1H-indazol-5-yloxy)-pyridin-3-ylmethyl]-urea] the “p38 Inhibition IC50 (nM)” value was “active”.
In the case of `CCON=C(c1ccc(F)cc1)c1ccc2c(cnn2CC(C)C)c1` [Compound 7f-4, (4-fluorophenyl)-(1-isobutyl-1H-indazol-5-yl)-methanone O-ethyl-oxime], the “p38 Inhibition IC50 (nM)” value was “active”.
With `CC(C)Cn1ncc2cc(C(=NOCc3ccccc3)c3ccc(F)cc3F)ccc21` [Compound 7f-7, (2,4-difluorophenyl)-(1-isobutyl-1H-indazol-5-yl)-methanone O-benzyl-oxime] the “p38 Inhibition IC50 (nM)” value was “active”.
In the case of `CON=C(c1ccc(F)cc1)c1ccc2c(cnn2CC(C)C)c1` [Compound 7f-9, (4-fluorophenyl)-(1-isobutyl-1H-indazol-5-yl)-methanone O-methyl-oxime], the “p38 Inhibition IC50 (nM)” value was “active”.
In the case of `ON=C(c1ccc2c(cnn2CC(F)(F)F)c1)c1ccc(F)cc1F` [Compound 7f-12, (2,4-difluorophenyl)-[1-(2,2,2-trifluoroethyl)-1H-indazol-5-yl]-methanone oxime], the “p38 Inhibition IC50 (nM)” value was “active”.
`CON=C(c1ccc2c(cnn2CC(F)(F)F)c1)c1ccc(F)cc1F` [Compound 7f-13, (2,4-difluorophenyl)-[1-(2,2,2-trifluoro-ethyl)-1H-indazol-5-yl]-methanone O-methyl oxime] was tested, and the “p38 Inhibition IC50 (nM)” value was “active”.
For `CS(=O)(=O)n1ncc2cc(C(=NO)c3ccc(F)cc3F)ccc21` [Compound 7f-14, (2,4-difluorophenyl)-(1-methanesulfonyl-1H-indazol-5-yl)methanone oxime], the “p38 Inhibition IC50 (nM)” value was “active”.
With `CON=C(c1ccc2c(cnn2S(C)(=O)=O)c1)c1ccc(F)cc1F` [Compound 7f-15, (2,4-difluorophenyl)-(1-methanesulfonyl-1H-indazol-5-yl)-methanone O-methyl oxime] the “p38 Inhibition IC50 (nM)” value was “active”.
`C=CCn1ncc2cc(C(=NO)c3ccc(F)cc3F)ccc21` [Compound 7f-17, (1-allyl-1H-indazol-5-yl)-(2,4-difluorophenyl)-methanone oxime] was tested, and the “p38 Inhibition IC50 (nM)” value was “active”.
For `Cc1ccc(-n2nc(C(C)(C)C)cc2NC(=O)NCc2cc(F)ccc2Oc2ccc3c(cnn3C)c2)cc1` [Compound 7t-1, 1-(5-tert-butyl-2-p-tolyl-2H-pyrazol-3-yl)-3-[5-fluoro-2-(1-methyl-1H-indazol-5-yloxy)-benzyl]urea], the “p38 Inhibition IC50 (nM)” value was “active”.
`Cc1ccc(-n2nc(C(C)(C)C)cc2NC(=O)NCc2cc(F)ccc2Nc2ccc3c(cnn3CC3CCC3)c2)cc1` [Compound 9q-2, 1-(5-tert-butyl-2-p-tolyl-2H-pyrazol-3-yl)-3-[2-(1-cyclobutylmethyl-1H-indazol-5-ylamino)-5-fluorobenzyl]-urea] was tested, and the “p38 Inhibition IC50 (nM)” value was “active”.
`CC(C)Cn1ncc2cc(Oc3ccc(F)cc3)c(C(N)=O)cc21` [Compound 11g-1, 5-(4-fluorophenoxy)-1-isobutyl-1H-indazole-6-carboxylic acid amide] was tested, and the “p38 Inhibition IC50 (nM)” value was “active”.
`CN(C)CCNC(=O)c1cc2c(cnn2CC(F)(F)F)cc1Oc1ccc(F)cc1` [Compound 11g-14, 5-(4-fluorophenoxy)-1-(2,2,2-trifluoroethyl)-1H-indazole-6-carboxylic acid (2-dimethylaminoethyl) amide] was tested, and the “p38 Inhibition IC50 (nM)” value was “active”.
With `CC(C)Cn1ncc2cc(Oc3ccccc3CC(=O)Nc3ccc(N4CCOCC4)cc3)ccc21` [Compound 16p, 2-[2-(1-isobutyl-1H-indazol-5-yloxy)-phenyl]-N-(4-morpholin-4-yl-phenyl)-acetamide] the “p38 Inhibition IC50 (nM)” value was “active”.
In the case of `Cc1ccc(-n2nc(C(C)(C)C)cc2NC(=O)N(C)Cc2cc(F)ccc2Oc2ccc3c(cnn3C)c2)cc1` [Compound 28t, 3-(5-tert-butyl-2-p-tolyl-2H-pyrazol-3-yl)-1-[5-fluoro-2-(1-methyl-1H-indazol-5-yloxy)-benzyl]-1-methylurea], the “p38 Inhibition IC50 (nM)” value was “active”.
